The source of these data is ChEMBL document CHEMBL1123315, “Total chemical synthesis and antitumor evaluation of the 9-aza analogue of N-(trifluoroacetyl)-4-demethoxydaunomycin” (1986).

Structures are written as SMILES. Active and inactive are the calls of the source. The calls are words filed in the database; no cut-off is given here.

In test [1] the test system is Mus musculus. As to the kind of experiment: Compound was tested intraperitoneally against P388 acute lymphocytic leukemia in mice; NA means inactive. The test is classed as functional, organism-based.
Test [2] concerns Mus musculus. The experiment in a line: Compound was tested intraperitoneally against P388 acute lymphocytic leukemia in mice at a dose 0.75 mg/kg. The test is classed as functional. The conditions noted are these: route intraperitoneal.
The test system of test [3] is Mus musculus. The experiment in a line: Compound was tested intraperitoneally against P388 acute lymphocytic leukemia in mice at a dose 100,50,25,12.5,6.25,3.72,1.56 mg/kg. The test is classed as functional.

For the molecule `COc1ccc(OC)c(CNCC(OC)OC)c1`, the T/C result in test [1] was “inactive”.

As to `CC(=O)[C@]1(O)Cc2c(O)c3c(c(O)c2[C@@H](OC2CC(N)C(O)C(C)O2)C1)C(=O)c1ccccc1C3=O` (stereo not given in full), the T/C in test [2] is on record as 160.

Molecule `CC(=O)N1Cc2c(O)c3c(c(O)c2[C@@H](OC2C[C@H](NC(=O)C(F)(F)F)[C@H](O)[C@H](C)O2)C1)C(=O)c1ccccc1C3=O` (stereo not given in full) displayed a T/C in test [3] of 105.

Consider `COc1ccc(OC)c2c1CN(C(C)=O)CC2O` (stereo not given), for which the T/C result in test [1] is “inactive”.

The molecule `CC(=O)N1Cc2c(O)c3c(c(O)c2[C@H](OC2C[C@H](NC(=O)C(F)(F)F)[C@H](O)[C@H](C)O2)C1)C(=O)c1ccccc1C3=O` (stereo not given in full) displayed a T/C in test [3] of 105.
